Assay results from US12453712B2, “Antitumoral use of cabazitaxel” (Sanofi Mature IP, priority 2009, dated 2025).

Test system: CYP3A
Assay: Metabolism of cabazitaxel
Source text: Concomitant administration of strong CYP3A inhibitors (for example, ketoconazole, itraconazole, clarithromycin, atazanavir, indinavir, nefazodone, nelfinavir, ritonavir, saquinavir, telithromycin, voriconazole) may increase cabazitaxel concentrations. Therefore co-administration of cabazitaxel with strong CYP3A inhibitors should be avoided. Caution should be exercised with concomitant use of moderate CYP3A inhibitors. One aspect of the invention is a method of treating a patient for prostate cancer comprising determining whether the patient is undergoing treatment with a CYP3A inhibitor, discontinuing treatment with a CYP3A inhibitor, and then administering cabazitaxel to the patient.

## CO[C@H]1C(=O)[C@]2(C)[C@@H](OC)C[C@H]3OC[C@@]3(OC(C)=O)[C@H]2[C@H](OC(=O)c2ccccc2)[C@]2(O)C[C@H](OC(=O)[C@H](O)[C@@H](NC(=O)OC(C)(C)C)c3ccccc3)C(C)=C1C2(C)C [cabazitaxel, 4α-acetoxy-2α-benzoyloxy-5β,20-epoxy-1β-hydroxy-7β,10β-dimethoxy-9-oxo-11-taxen-13α-yl (2R,3S)-3-tert-butoxycarbonyl-amino-2-hydroxy-3-phenylpropionate]
  metabolic pathway: primarily metabolized through CYP3A
